Like-named read-outs stand apart in the source and are kept apart here.
Assays:
[1] = Qualitative solubility of the isolated product; assay type: physicochemical; details: for solubility in bicarbonate solutions: bicarbonate solution
[2] = tested on: writhing induced by phenylquinone administration in Swiss rats; experiment: Phenylquinone writhing test, analgesic activity; assay type: in vivo; details: for No. WRITHINGS M̄ ± ES: control 24.5 ±2.2
Method: The analgesic activity of the compounds of the invention was determined according to the writhing test, as inhibitory activity against the writhing induced by phenylquinone administration in Swiss rats (Siegmund et al., Proc. Soc. Exp. Biol. Med. 95, 729, 1957). The analgesic activity of MR 883 was determined in comparison to the one of Diflunisal and Naproxen.

[3] = Acute toxicology: indicative LD50 in the rat; details: in vivo, ip
[4] = tested on: carrageenin oedema in the rat paw; experiment: Carrageenin oedema test (rat paw), antiinflammatory activity; assay type: in vivo; details: for Inhibition versus control / AREAS % M ± ES: 50 mg/kg p.o., 10 rats per group; for Inhibition versus control: oedema areas; for AREAS % M ± ES: control 305 ±23.7; for ED50: Rattus norvegicus, carrageenin oedema, oral, groups of 10 rats, dosages of 25.50 and 100 mg/kg
Method: The antiinflammatory activity of the compounds of the invention was determined according to the carrageenin oedema test in rats, in comparison with equiponderal dosages of Diflunisal (Rissly, Ness.; Proc. Soc. Exp. Biol. Med., 111, 544-547, 1962).
ED50 of MR 883 and Diflunisal were determined according to the same test. Groups of 10 rats were administered orally with the compounds at dosages of 25.50 and 100 mg/kg.

[5] = tested on: writhing induced by acetic acid in the rat; experiment: Inhibition of writhing induced by acetic acid, analgesic ED50; assay type: in vivo; details: po
Method: The ED50 in the analgesic activity of MR 883, in comparison to Diflunisal, D-prppoxyphene, phenylbutazone and acetylsalicylic acid was determined according to the test of inhibition of writhing induced by acetic acid in the rat (Sofia et al., J. Pharmacol. Expt. Therap. 186, 646, 1973).

rat = details: cited from earlier work
[6] = dose 50 mg/kg, 10 animals per group
[7] = acetic acid writhing in the rat, per os, read-out: ED50

CCOC(C(=O)O)c1ccc(-c2ccc(F)cc2F)cc1 (centres unmarked) [MR 936, 2-Ethoxy-2-[p-(2",4"-difluorophenyl)phenyl]acetic acid]
solubility in bicarbonate solutions [1]: soluble | solubility in the usual organic solvents [1]: soluble | % Inhibition versus control ([2]; dose 50 mg/kg): 76.7% | No. WRITHINGS M̄ ± ES [2, 6]: 5.7 ±0.8 | LD50 [3]: 1800 mg/kg | Inhibition versus control [4]: 45.8% | AREAS % M ± ES [4]: 139.7 ±15.2

COC(C(=O)O)c1ccc(-c2ccc(F)cc2F)cc1 (centres unmarked) [MR 883, 2-Methoxy-2-[p-(2^1,4"-difluorophenyl)phenyl]acetic acid]
solubility in the usual organic solvents [1]: soluble | % Inhibition versus control ([2]; dose 50 mg/kg): 98% | ED50 [5, 7]: 25 mg/kg | LD50 [3]: 2200 mg/kg | Inhibition versus control [4]: 52.8% | AREAS % M ± ES [4]: 144.0 ±17.5 | ED50 [4]: 145 mg/kg

O=C(O)C(O)c1ccc(-c2ccc(F)cc2F)cc1 (centres unmarked) [MR 864, 2-Hydroxy-2-[p-(2",4"-difluorophenyl)phenyl]acetic acid]
solubility in cyclohexane and petroleum ether ([1]; cyclohexane, petroleum ether): soluble | solubility in toluene, chloroform, carbon tetrachloride ([1]; toluene, chloroform, carbon tetrachloride): slightly soluble | solubility in water [1]: soluble | % Inhibition versus control ([2]; dose 50 mg/kg): 85% | No. WRITHINGS M̄ ± ES [2, 6]: 3.6 ±1.2 | LD50 [3]: 850 mg/kg | Inhibition versus control [4]: 42.7% | AREAS % M ± ES [4]: 174.7 ±20.7

CCC(=O)O[C@](Cc1ccccc1)(c1ccccc1)[C@H](C)CN(C)C [D-propoxyphene]
ED50 ([5]; Rattus norvegicus): 40 mg/kg

O=C(O)C(Cl)c1ccc(-c2ccc(F)cc2F)cc1 (centres unmarked) [MR 881, 2-Chloro-2-[p-(2",4"-difluorophenyl)phenyl]acetic acid]
solubility in bicarbonate solutions [1]: soluble | solubility in the usual organic solvents [1]: soluble | solubility in water [1]: insoluble | % Inhibition versus control ([2]; dose 50 mg/kg): 95% | LD50 [3]: 850 mg/kg | Inhibition versus control [4]: 48.6% | AREAS % M ± ES [4]: 156.8 ±13.1

CCCCC1C(=O)N(c2ccccc2)N(c2ccccc2)C1=O [Phenylbutazone]
ED50 [5, 7]: 180 mg/kg

O=C(O)c1cc(-c2ccc(F)cc2F)ccc1O [Diflunisal, reference compound]
% Inhibition versus control ([2]; dose 50 mg/kg): 82% | No. WRITHINGS M̄ ± ES [2, 6]: 4.3 ±1.6 | ED50 [5, 7]: 45 mg/kg | LD50 p.o. (rat): about 750 mg/kg | Inhibition versus control [4]: 59.6% | AREAS % M ± ES [4]: 123.3 ±10.1 | ED50 [4]: 234 mg/kg

COc1ccc2cc([C@H](C)C(=O)O)ccc2c1 [Naproxen, reference compound]
% Inhibition versus control ([2]; dose 100 mg/kg): 84% | No. WRITHINGS M̄ ± ES ([2]; dose 100 mg/kg, 10 animals): 4.0 ±1.1

CC(=O)Oc1ccccc1C(=O)O [Acetylsalicylic acid]
ED50 ([5]; Rattus norvegicus): 330 mg/kg
